Results published in US6384076B1, “Inhibition or erythrocyte sickling by N-L-alpha-aspartyl-L-phenylalanine 1-methyl ester” (Oklahoma Medical Research Foundation, priority 1998, dated 2002).
Where “and” joins values, the source holds several entries; their conditions need not be identical. Identical values can stand only once. Peptide text beside a SMILES is read from it.

Assays:
[1] = tested on: osteo- and mixed osteo- and rheumatoid arthritis; settings: clinical trial, Edmundson and Manion 1998; cited from earlier work
[2] = tested on: sickling RBCs; test: Reduction of sickle cells in vivo: metabisulfite sickling test on blood of one patient before and 1 hour after oral APM; parameters: species or system human; settings: blood 1 hour after
Method: During Week 1 of the study, blood samples were taken from the patient before and one hour after an orally administered dose of 60 milligrams APM. During Week 2, blood samples were taken from the patient before and one hour after an orally administered dose of 160 milligrams APM. The blood samples and slides were prepared according to the methods given in Example 1, and cell counts were taken at 0, 30, and 120 minutes post-induction.

[3] = tested on: whole blood viscosity; test: Blood viscosity after additional in vitro APM on samples taken post in vivo treatment; assay type: cell-based, human; settings: 1 or 2 milligrams/milliliter APM added in vitro to 480 minute post-treatment samples
Method: (§1) To measure viscosity, 1.01 cc of the test fluid, i.e., either water, saline or blood, was drawn into an RBC pipette using a 50 cc syringe attached via rubber tubing to the top of the RBC pipette. Using a constant pressure of 20 mm by maintaining the pressure with visual feedback and hand pressure, the amount of time it took for the test fluid to drip out of the RBC pipette was measured with a stopwatch. Each measurement was made in triplicate.
Samples with high viscosity readings at 480 minute or 1,440 minute posttreatment, chosen to represent patients with a validated response to APM who were returning to normal, were divided and treated with an additional 0, 1, or 2 milligrams/milliliter APM in vitro, in an effort to measure whether a second inducible sickling response was possible and if a second response to the in vitro APM addition could be observed. The viscosity of each sample at 480 minutes post-treatment was measured.

[4] = tested on: sickling RBCs; test: Blinded APM dose-response study of patients with sickle cell disorders (sickle cell counts); assay type: in vivo, human; settings: for Dose-response of antisickling effect: 1.5, 3, 6 mg/kg body weight
Method: A blinded study was conducted with 23 patients diagnosed with sickle cell disorders. Blood samples were obtained from the 23 patients having sickle cell disease (homozygous HgBss), sickle cell trait (heterozygous Hgbsc), or homozygous HbS with a β-thalassemia chain (“sbthal”) before and after a blinded administration of APM at 1.5 (low dosage), 3 (medium dosage), or 6 (high dosage) milligrams per kilogram body weight.
Blood was drawn before and 120 minutes after treatment with 0, 1.5, 3, or 6 milligrams APM per kilogram body weight in a blinded fashion from the ten patients into heparin tubes, stored in a refrigerator at approximately 10° C. and routinely tested within 36 hours of collection.
Normal blood devoid of abnormal hemoglobin was used as a control. For each heparinized patient blood sample and the normal blood control, experimental samples were prepared containing 0.25 milliliters of normal saline and 0.25 milliliters of blood. Following the metabisulfite induction as given in Example 1, the number of sickle cells relative to the number of normal cells was obtained at 0, 30, 60, 120, 240, 480, and 1440 minutes post-induction.

[5] = tested on: whole blood viscosity; test: Blood viscosity by RBC pipette method before and after blinded oral APM; assay type: in vivo, human; settings: for Blood viscosity change after treatment: baseline vs 120 minutes post-treatment
Excerpt: Blood samples were obtained from ten patients having homozygous HbSS disease or heterozygous HbSC disease before and after a blinded administration of APM at 1.5 (low dosage), 3 (medium dosage), or 6 (high dosage) milligrams per kilogram body weight. The patients' characteristics are given in the first ten entries in Table II.
Viscosity determinations using the RBC pipette method of Wright and Jenkins (Wright, D. J. and Jenkins, Jr., D. E. 1970. Blood 36:516-522) were made on each blinded whole blood sample before and 120 minutes after blinded administration of APM. Each measurement was made in triplicate. Control viscosity measurements using saline and water for each patient and normal whole blood sample were also made to validate the viscosity measurements.
as §1

[6] = tested on: RBCs containing HbS; test: Metabisulfite sickling test on heparinized patient blood treated with APM in vitro; assay type: cell-based, human; settings: for Number of Cells Sickled per Hundred Counted: individual patients 1-12, baseline subtracted; for Number of Cells Sickled per Hundred Counted, Avg: average over 0, 30, 120 min per patient 1-12; for Number of Cells Sickled per Hundred Counted, Mean: mean of the twelve patients' averages (control 17.7)
Method: Blood was drawn from twelve patients of pediatric age who were being treated by phlebotomy and exchange transfusion for their sickling disorders. Blood samples from each patient were drawn directly into heparin tubes, stored in a refrigerator at approximately 10° C., and routinely tested within 36 hours of collection. Some samples were rechecked or reanalyzed within a week of collection, and the effects on sickle hemoglobin was still present with counted values similar to those obtained within 36 hours.
Normal blood devoid of HbS was used as a control. For each heparinized patient blood sample and the normal blood control, three experimental samples were prepared containing 0.25 milliliters of normal saline and 0.25 milliliters of blood and then treated as follows: (1) one was left untreated; one was treated with 1 milligram APM; and (3) one was treated with 2 milligrams APM. All experimental samples were stored in a refrigerator at approximately 10° C. for one hour prior to testing to allow time for the APM to be absorbed by the RBCs.
Using metabisulfite to reduce HbS to the deoxy form (Daland, G. A. and Castle, W. B. 1948. J Lab Clin Med 33:1082-1088; Nelson, D. A. In Todd-Sanford-Davidsohn Clinical Diagnosis by Laboratory Methods, J. B. Henry, ed. (W. B. Saunders Co., Philadelphia, 1979, vol. 1, p. 1020), a sickling test was run on each experimental sample. The sickling inducing agent was prepared fresh daily as follows: 10 milligrams metabisulfite in 1 milliliter isotonic saline. Multiple test slides were prepared for each experimental sample by adding 3 drops of the metabisulfite inducing agent and 1 drop of the experimental sample onto the surface of a glass slide, placing a coverslip over the sample, and sealing the coverslip with a petroleum jelly bead to prevent oxygen from entering the sample. Photomicrographs were taken with a phase contrast microscope at 400 magnification at 0, 30, and 120 minutes after slide preparation, and the results were obtained from the photomicrographs as the number of sickle cells per 100 cells counted.
To account for natural or non-induced sickling of the experimental samples, a baseline sickling count was obtained for each heparinized patient blood sample and the normal blood control. Slides were prepared by adding 3 drops of saline and 1 drop of the experimental sample onto the surface of a glass slide, placing a coverslip over the sample, and sealing the coverslip with a petroleum jelly bead to prevent oxygen from entering the sample. Photomicrographs were taken with a phase contrast microscope at 400 magnification at 0, 30, and 120 minutes after slide preparation, and the results were obtained from the photomicrographs as the number of sickle cells per 100 cells counted. This number of sickle cells per 100 cells counted was considered the baseline sickling count and was subtracted from the cell counts obtained with the metabisulfite induced samples.
A timeline for APM effect was made by repeating the experiment given above with cell counts obtained at 0, 1, 2, 3, 4, 5, 24, and 27 hours post-metabisulfite induction. The results are presented in FIG. 2 as combined APM timelines for each treatment method. The antisickling effect of APM in vitro lasted for at least 27 hours. During this period, the rate of sickling in the APM treated
The effect of calcium (Ca^2+) on the effectiveness of APM was examined by repeating the experiment above with the addition of EDTA, a Ca^2+chelating agent, to normal blood control and the patient experimental samples prior to testing. FIG. 3 illustrates the comparative heparin versus EDTA treatment of the blood. […] Moreover, the addition of a calcium salt to APM formulations useful for antisickling treatment as well as in vitro applications is desirable.

## COC(=O)[C@H](Cc1ccccc1)NC(=O)[C@@H](N)CC(=O)O [APM, N-L-alpha-aspartyl-L-phenylalanine 1-methyl ester] (H-Asp-Phe-OMe)
[1]
  Pain and inflammation of arthritis: alleviate the pain and inflammation
[2]; 60 milligrams APM orally, patient with sickle cell anemia
  Number of sickling RBCs relative to the control: decrease in the number of sickling RBCs
[2]; 160 milligrams APM orally, same patient
  Antisickling effect versus 60 milligram dosage: proportionately larger
[3]; HgBss patients
  Viscosity of blood samples compared to the control: decreased over time
[3]; Hgbsc patients
  Viscosity of blood samples compared to the control: increase in viscosity
[4]; HgBss and sbthal patients
  Dose-response of antisickling effect: significant dose-response effect
[4]; Hgbsc patients
  Dose-response of antisickling effect: No dose-response effect
[4]; in vivo or in vitro, sickle cell number and viscosity
  Effect on HbSC blood: not affected
[4]; lower dosage 1.5 mg/kg body weight
  Number of sickling RBCs relative to the control: decrease in the number of sickling RBCs
[4]; patients with sickle cell family diseases, effective amount
  Time to reduction in number of sickle cells relative to normal cells after administration: within one hour
[5]; HgBss patients, 1.5, 3 or 6 mg/kg
  Blood viscosity change after treatment: blood viscosity decreased
[5]; HgBss, of five patients
  No. of Patients with decreasing viscosity: 5
[5]; Hgbsc patients
  Blood viscosity change after treatment: increased viscosity
[5]; Hgbsc, of three patients
  No. of Patients with increasing viscosity: 3
[5]; sbthal patients
  Blood viscosity change after treatment: blood viscosity also decreased
[5]; sbthal, of two patients
  No. of Patients with decreasing viscosity: 2
[6]; APM 1 mg in 0.25 ml blood + 0.25 ml saline, 0 min after slide preparation
  Number of Cells Sickled per Hundred Counted: 1.5 per Hundred Counted (2×) and 1.0 per Hundred Counted and 0.5 per Hundred Counted and 0.0 per Hundred Counted and 2.5 per Hundred Counted (2×) and 2.0 per Hundred Counted (2×) and 9.5 per Hundred Counted (2×) and −1.0 per Hundred Counted
[6]; APM 1 mg, 30 min after slide preparation
  Number of Cells Sickled per Hundred Counted: 2.5 per Hundred Counted and 2.0 per Hundred Counted and −1.0 per Hundred Counted and 6.0 per Hundred Counted and 1.5 per Hundred Counted and 3.5 per Hundred Counted (2×) and 3.0 per Hundred Counted and 10.5 per Hundred Counted and 9.0 per Hundred Counted and 4.5 per Hundred Counted and −0.5 per Hundred Counted
[6]; APM 1 mg, 120 min after slide preparation
  Number of Cells Sickled per Hundred Counted: 1.5 per Hundred Counted and 3.5 per Hundred Counted (2×) and 1.0 per Hundred Counted and 21.0 per Hundred Counted and 2.5 per Hundred Counted and 3.0 per Hundred Counted and 12.0 per Hundred Counted and 11.0 per Hundred Counted and 4.0 per Hundred Counted and 0.5 per Hundred Counted
[6]; APM 1 mg
  Number of Cells Sickled per Hundred Counted, Avg: 1.8 per Hundred Counted and 2.2 per Hundred Counted (2×) and 0.2 per Hundred Counted and 9.0 per Hundred Counted and 2.8 per Hundred Counted (2×) and 10.7 per Hundred Counted and 9.8 per Hundred Counted and 3.2 per Hundred Counted (2×) and −0.3 per Hundred Counted
  Number of Cells Sickled per Hundred Counted, Mean: 4.0 per Hundred Counted
[6]; APM 2 mg in 0.25 ml blood + 0.25 ml saline, 0 min after slide preparation
  Number of Cells Sickled per Hundred Counted: 0.5 per Hundred Counted (2×) and 0.0 per Hundred Counted (2×) and 2.0 per Hundred Counted (2×) and 2.5 per Hundred Counted and 1.0 per Hundred Counted (2×) and 6.5 per Hundred Counted and 8.5 per Hundred Counted and −5.5 per Hundred Counted
[6]; APM 2 mg, 30 min after slide preparation
  Number of Cells Sickled per Hundred Counted: 0.5 per Hundred Counted (2×) and 1.0 per Hundred Counted and −0.5 per Hundred Counted and 6.0 per Hundred Counted and 2.0 per Hundred Counted (3×) and 1.5 per Hundred Counted and 5.0 per Hundred Counted and 8.5 per Hundred Counted and −6.5 per Hundred Counted
[6]; APM 2 mg, 120 min after slide preparation
  Number of Cells Sickled per Hundred Counted: −0.5 per Hundred Counted (2×) and 0.5 per Hundred Counted and 19.0 per Hundred Counted and 2.5 per Hundred Counted and 5.0 per Hundred Counted and 2.0 per Hundred Counted (2×) and 9.5 per Hundred Counted and 1.0 per Hundred Counted and −6.5 per Hundred Counted
[6]; APM 2 mg
  Number of Cells Sickled per Hundred Counted, Avg: 0.0 per Hundred Counted and 0.5 per Hundred Counted and −0.3 per Hundred Counted and 9.0 per Hundred Counted and 2.3 per Hundred Counted and 1.3 per Hundred Counted and 3.0 per Hundred Counted and 4.5 per Hundred Counted and 8.8 per Hundred Counted and 1.2 per Hundred Counted and 0.8 per Hundred Counted and −6.2 per Hundred Counted
  Number of Cells Sickled per Hundred Counted, Mean: 2.1 per Hundred Counted
[6]; EDTA (Ca2+ chelating agent) added prior to testing
  Antisickling effect of APM with addition of EDTA: completely eliminated the antisickling effect
[6]; all twelve patients, 1 and 2 mg APM, ANOVA p<0.00004
  Sickle cells after metabisulfite versus controls: fewer sickle cells than the controls
[6]; counts at 0-27 hours post-metabisulfite induction
  Duration of antisickling effect in vitro: at least 27 hours
[6]; in the absence of Ca2+ (EDTA)
  Passage of APM across the RBC membrane: does not pass the RBC membrane
[6]; over 27 hours, versus controls
  Rate of sickling in APM treated cells: significantly less than that in the controls
